Laboratory results as given in patent US12116355B2, “Deuterated 1-piperazino-3-phenyl indanes for treatment of schizophrenia” (H. Lundbeck A/S, priority 2011, dated 2024).
Where two headings read alike, the source gives them in different places.

Key:
[1] = tested on: D2 receptors in rat brain; assay: In vivo binding to D2 receptors in rat brain; settings: 20 mg/kg subcutaneous 30 minutes before [3H]-raclopride i.v.
Method: Description of In Vivo Binding to D2 Receptors in Rat Brain
Briefly, 6 rats (male Wistar, 180-200 g) were treated with 20 mg/kg test compound subcutaneous 30 minutes before receiving 9.4 micro Ci [^3H]-raclopride intravenously via the tail vein.
15 minutes after the injection of the radio ligand, the animals were killed by cervical dislocation, the brain quickly removed, and striatum and cerebellum dissected out and homogenized in 5 mL (cerebellum in 20 mL) ice-cold buffer (50 mM K3PO4, pH 7.4). 1.0 mL of the homogenate was filtered through 0.1% PEI-soaked Whatman GF/C filters. This was completed within 60 seconds subsequent to the decapitation. Filters were washed 2 times with 5 mL ice-cold buffer and counted in a scintillation counter. A group of vehicle-treated animals was used to determine [^3H]-raclopride total binding in striatum and non-specific binding in cerebellum.

[2] = Metabolism in pooled human liver microsomes, formation of desmethyl metabolite; type: in vitro ADME
Method: Pooled human liver microsomes (50 donors, from Xenotech) were incubated with 1 μM or 10 μM of compound at 37° C. […] The protein concentration was 0.2 mg/mL and the final volume was 0.5 mL. Following a 10-minute pre-incubation, the reaction was initiated by adding Compound. After 0, 15, 30, 60, 90, 120, and 180 minutes, the reactions were terminated by transferring the subcellular fraction to 0.5 mL of stopping reagent containing internal standard. The incubations were carried out in triplicate. The samples were centrifuged at 4000 g (4° C., 15 min) and the supernatants were analyzed by HPLC-MS/MS. Data were expressed as MS area relative to an internal standard.

[3] = target: recombinant human liver CYP2C19 (Homo sapiens (Human), UniProt P33261); assay: Metabolism by recombinant human liver CYP2C19; type: in vitro ADME
Method: (§1) The protein concentration was 0.5 mg/mL and the final volume was 0.5 mL. […] After 0, 15, 30, 60, 90, 120, and 180 minutes, the reactions were terminated by transferring the subcellular fraction to 0.5 mL of stopping reagent containing internal standard. The incubations were carried out in triplicate. The samples were centrifuged at 4000×g (4° C., 15 minutes) and the supernatants were analyzed by HPLC-MS/MS. Data were expressed as MS area relative to an internal standard.

[4] = target: recombinant human liver CYP3A4 (Homo sapiens (Human), UniProt P08684); assay: Metabolism by recombinant human liver CYP3A4; type: in vitro ADME
Method: as §1

[5] = tested on: PCP-induced hyperactivity in mice; assay: PCP-induced hyperactivity in mice; settings: hydrogen tartrate s.c. 30 minutes before test, PCP 2.3 mg/kg s.c.
Method: Locomotor activity was measured for 60 minutes as number of beam breaks (counts). Eight-to-16 male mice were used in each group. ##indicates P<0.01 versus Vehicle-PCP (One-way analysis of variance [ANOVA] followed by Bonferroni post-hoc test).

catalepsy in rats [6] = assay: Catalepsy test in rats; type: in vivo, rats (male Sprague Dawley); settings: tartrate s.c. 30 minutes before test
Source text: Catalepsy is thought to reflect drug-induced suppression of the ability to initiate a behavioral response. The catalepsy test in rats is a common and widely used preclinical screening test for the EPS liability of potentially antipsychotic drugs. Although catalepsy is usually assessed following acute drug administration, the test has proven to be a reliable predictor for the propensity of an antipsychotic drug to induce EPS (that is, pseudo parkinsonism, dystonia) in humans (Elliott, P. J. et al, J. Neural. Transm. Park. Dis. Dement. Sect. 1990, 2, 79-89; herein incorporated by reference in its entirety). […] The minimal effective dose inducing catalepsy was 10 mg/kg (FIG. 17). […] Eight male Sprague Dawley rats were used in each group. # indicates P<0.05, ## indicates P<0.01 versus vehicle (One-way ANOVA followed by Bonferroni post-hoc test). This dose is 100 times higher than the dose indicating antipsychotic activity (FIG. 16).

[7] = Human pharmacokinetic multiple oral dose study; type: in vivo; settings: male, healthy young men, 3 mg daily oral for 18 days, plasma after last dose, read-out: mean AUC 0-24 of parent compound
Source text: The pharmacokinetics of Compound (IV) and Compound (X) were compared in a multiple oral dose study in healthy young men.

[8] = pKa determination by potentiometric titration / Dip Probe Absorption Spectroscopy; type: physicochemical; settings: ion strength 0.16, extrapolated to zero MeOH
Method: pKa was determined by potentiometric titration of the base at ion strength 0.16 using MeOH as co-solvent. Three series of three repeated titrations on the same solution of the sample was performed in a conventional way from low to high pH and a difference curve was created from each of these titrations by blank subtraction. The apparent pKa-value at each MeOH:water ratio is calculated from the difference curves, and the pKa value is determined by extrapolation to zero MeOH content.
The lower pKa was determined by Dip Probe Absorption Spectroscopy detection during titration of the base at ion strength 0.16 using MeOH as co-solvent. The change in absorption spectra as a function of ionisation is used to calculate the pKa value. Two series of three repeated titrations on the same solution of the sample was performed from low to high pH, with a photo diode array as additional detection. The apparent pKa value at each MeOH:water ratio is calculated by target factor analysis on the change in absorption spectra, and the pKa value is determined by extrapolation to zero MeOH content.

[9] = Log P / log D profile by titration with n-octanol; type: physicochemical; settings: n-octanol:water, 27° C., ion strength approximately 0.16
Method: A series of three repeated titrations on the same sample in solution was performed, from low to high pH. The first titration was performed with a small amount of n-octanol present in the solution, the second and third with increasing amounts.
A difference curve was created from each of these titrations by blank subtraction, and from these difference curves, the apparent pKa values (poKa) were calculated. From the change in the apparent pKa values (ΔpKa) with the n-octanol:water ratio combined with the real pKa value, the Log P value was calculated and the Log D profile was derived.

[10] = Solubility of salts of Compound (IV); type: physicochemical
[11] = tested on: cryopreserved dog hepatocytes; assay: Metabolism in cryopreserved dog hepatocytes, formation of desmethyl metabolite; type: in vitro ADME, dog (male Beagle dog); settings: for amount of desmethyl metabolite (Compound (XI)) produced, versus Compound (X): cryopreserved dog hepatocytes
Method: Cryopreserved dog (male Beagle dog) hepatocytes (1 million cells/mL in suspension, 50 μL/well) were pre-incubated for 15 minutes in a 96-well plate at 37° C. water bath in DMEM high glucose buffered with 1 M HEPES.

catalepsy in rats [12] = settings: fumarate salt, J. Med. Chem. 1995, 38, 4380-4392; cited from earlier work
D1 = settings: in vitro, J. Med. Chem. 1995, 38, 4380-4392; cited from earlier work
D2 = settings: in vitro, J. Med. Chem. 1995, 38, 4380-4392; cited from earlier work
5-HT2 = settings: J. Med. Chem. 1995, 38, 4380-4392; cited from earlier work

recombinant human liver CYP3A4, sequence (P08684 whole entry): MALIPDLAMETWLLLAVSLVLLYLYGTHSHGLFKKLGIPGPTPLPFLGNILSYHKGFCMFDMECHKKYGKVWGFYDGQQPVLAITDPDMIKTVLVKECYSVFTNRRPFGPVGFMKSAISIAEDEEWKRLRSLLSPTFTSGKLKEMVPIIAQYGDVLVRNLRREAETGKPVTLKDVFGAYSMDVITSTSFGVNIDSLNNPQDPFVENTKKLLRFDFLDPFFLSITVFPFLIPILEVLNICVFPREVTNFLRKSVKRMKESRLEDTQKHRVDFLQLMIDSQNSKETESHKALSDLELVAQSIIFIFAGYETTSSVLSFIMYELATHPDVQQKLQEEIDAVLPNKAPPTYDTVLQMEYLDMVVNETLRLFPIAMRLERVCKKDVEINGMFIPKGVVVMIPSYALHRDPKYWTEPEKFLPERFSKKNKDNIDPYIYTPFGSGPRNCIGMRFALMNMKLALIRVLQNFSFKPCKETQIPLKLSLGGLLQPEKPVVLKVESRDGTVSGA
recombinant human liver CYP2C19, sequence (P33261 whole entry): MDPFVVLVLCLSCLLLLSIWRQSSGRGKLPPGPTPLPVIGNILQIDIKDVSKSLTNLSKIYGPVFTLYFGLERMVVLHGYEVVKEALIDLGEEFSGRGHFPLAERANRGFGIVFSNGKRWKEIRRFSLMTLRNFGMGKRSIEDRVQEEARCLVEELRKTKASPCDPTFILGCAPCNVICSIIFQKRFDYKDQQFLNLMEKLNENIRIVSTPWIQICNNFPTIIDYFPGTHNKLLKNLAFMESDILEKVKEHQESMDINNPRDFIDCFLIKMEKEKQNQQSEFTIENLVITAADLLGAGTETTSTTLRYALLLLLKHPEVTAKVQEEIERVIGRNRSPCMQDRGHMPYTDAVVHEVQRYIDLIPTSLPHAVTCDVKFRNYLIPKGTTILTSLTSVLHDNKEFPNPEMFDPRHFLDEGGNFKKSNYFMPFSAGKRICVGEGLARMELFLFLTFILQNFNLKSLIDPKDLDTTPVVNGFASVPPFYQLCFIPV

| Compound | occupancy of D2 receptors by in vivo binding [1] | amount of desmethyl metabolite produced, versus Compound (X) ([2]; 1 μM) | amount of desmethyl metabolite produced, versus Compound (X) ([2]; 10 μM) | amount of desmethyl metabolite produced, versus Compound (X) ([3]; 1 μM) | amount of desmethyl metabolite produced, versus Compound (X) ([3]; 10 μM) | amount of desmethyl metabolite produced, versus Compound (X) ([4]; 1 mM (so in the source)) | amount of desmethyl metabolite produced, versus Compound (X) ([4]; 10 mM (so in the source)) | AUC(0-t) [7] | also measured |
| --- | --- | --- | --- | --- | --- | --- | --- | --- | --- |
| [2H]c1c([2H])c([2H])c([C@@H]2C[C@@H](N3CCN(C)C(C)(C)C3)c3cc(Cl)ccc32)c([2H])c1[2H] (single isomer, unassigned) [Compound (II)] | 75% | lower | lower | Corresponding results | lower | lower | lower | – | – |
| CN1CCN([C@@H]2C[C@@H](c3ccccc3)c3ccc(Cl)cc32)CC1(C)C (single isomer, unassigned) [Compound (IV)] | – | – | – | – | – | – | – | – | reversal of PCP-induced hyperactivity (locomotor activity) [5]: dose-dependently reverses |
| [2H]c1c([2H])c([2H])c([C@@H]2C[C@@H](N3CCN(C([2H])([2H])[2H])C(C)(C)C3)c3cc(Cl)ccc32)c([2H])c1[2H] (single isomer, unassigned) [Compound (IV)] | 70% | lower | lower | lower | Corresponding results | lower | lower | 104 ng·h/mL | induction of catalepsy (catalepsy in rats [6]): dose-dependently induced catalepsy; minimal effective dose inducing catalepsy (catalepsy in rats [6]): 10 mg/kg; pKa ([8]; Dip Probe Absorption Spectroscopy, read-out: lower pKa): 2.5 ± 0.1; pKa ([8]; potentiometric titration, read-out: high pKa): 8.9 ± 0.1; logP [9]: 5.4 ± 0.4; logD ([9]; pH 7.4, read-out: Log D7.4): 3.9 ± 0.4; solubility ([10]; pH 7.6): 100 µg/mL; pH of solubility solution ([10]; salts of Compound (IV)): 7.6 |
| [2H]C([2H])([2H])N1CCN([C@@H]2C[C@@H](c3ccccc3)c3ccc(Cl)cc32)CC1(C)C [Compound (I), 4-((1R,3S)-6-chloro-3-phenyl-indan-1-yl)-1-methyl-d3-2,2-dimethyl-piperazine] | – | – | – | – | – | – | – | – | amount of desmethyl metabolite (Compound (XI)) produced, versus Compound (X) ([11]; 0.1 μM): lower; amount of desmethyl metabolite (Compound (XI)) produced, versus Compound (X) ([11]; 1 μM): lower; decrease in formation of the desmethyl metabolite (Compound (XI)) in comparison to Compound (X) ([11]; dog hepatocytes): approximately 50% |
| CN1CCN([C@@H]2C[C@@H](c3ccccc3)c3ccc(Cl)cc32)CC1(C)C [Compound (X), 4-((1R,3S)-6-Chloro-3-phenyl-indan-1-yl)-1,2,2-trimethyl-piperazine] | – | – | – | – | – | – | – | 98 ng·h/mL | catalepsy in rats (catalepsy in rats [12]): does not induce catalepsy; D1 antagonism (D1): potent D1/D2 antagonist; D2 antagonism (D2): potent D1/D2 antagonist; 5-HT2 antagonism (5-HT2): potent 5-HT2 antagonist |
